Assay results taken from US10973936B2, “18F-saccharide-folates” (MERCK & CIE, priority 2011, dated 2021).

Columns and labels:
[1] = type: physicochemical; settings: pH 7.4
Method: The distribution coefficient (log D7.4) was determined by the shake flask method. In brief, γ-[^18F]-glucose folate was dissolved in a mixture of phosphate buffer (500 μL, pH 7.4) and n-octanol ([…]) at 20° C. The sample was equilibrated for 15 min in an over-head shaker. The two phases were separated by centrifugation (3 min, 5000 rpm) and 50 μL aliquots were taken from each layer and counted for radioactivity in a γ-counter. The partition coefficient is expressed as the ratio of radioactivity (cpm) in the octanol phase to the one in the PBS phase represents the mean±standard deviation of eight measurements.

KB tumor xenografts = assay: PET imaging of KB tumor xenografts; type: in vivo; settings: for PET images of KB tumor xenografts: 75-105 min p.i.; for specificity of uptake (blocking with folic acid): PET, excess folic acid 10 min prior to radiotracer
Method: PET experiments were performed with Explore VISTA PET/CT tomograph (GE), which provides an ultrahigh resolution of less than 0.9 mm. Animals were lightly restrained and injected with 10-14 MBq of γ-[^18F]-glucose folate (100-150 μL per injection) via a lateral tail vein. […] Animals were anesthetized with isoflurane in an air/oxygen mixture. The PET scans were acquired from 75-105 min post-injection. The fused datasets of PET and CT were analyzed with Amira (Version 4) postprocessing software.

folate receptor = target: T1, folate receptor (Homo sapiens, UniProt P15328); assay: In vitro binding affinity assay, displacement of 3H-folic acid on KB cells; settings: 3H-folic acid 0.82 nM, 4° C., 30 min; for IC50: three independent experiments, read-out: mean inhibitory concentration of 50% (IC50 value)
T1 construct: endogenous in cells; host or cells: KB cells (human cervical carcinoma), whole-cell suspension
Method: Binding affinity assays were performed with KB cells derived from human cervical carcinoma, where the folate receptor is overexpressed. The cells were cultured as monolayers in 75 cm^2 flasks at 37° C. in a humidified atmosphere (7.5% CO2). The cells were kept in a special folate-deficient RPMI 1640 medium (FFRPMI 1640; Cell Culture Technologies) supplemented with heat-inactivated fetal calf serum (10%), L-glutamine, penicillin (100 IU/mL), and streptomycin ([…]). The fetal calf serum was the only source of folate in the medium, which is reported to provide a final folate concentration of about 3 nmol/mL, which is at the low end of the physiologic serum concentration in humans.
A cell suspension in pure FFRPMI 1640 medium (no additives, ice-cold) was added into 1.5 mL vials (7000 cells in 240 μL). […] After incubation, the suspension was centrifuged at 3500 rpm and 4° C. for 5 min and the supernatant was removed. By addition of 0.5 mL of 1 N NaOH, the cell pellets were resuspended and lysed at the same time. The lysed cells were stirred in a vortex mixer and transferred into scintillation tubes containing 4 mL of scintillation cocktail (Ultima Gold; Perkin Elmer). Radioactivity was measured using a β-counter (LS6500; Beckman), and the inhibitory concentrations of 50% were determined from displacement curves using Graph Pad Prism 4.0 software.

T1 sequence (P15328 25-234): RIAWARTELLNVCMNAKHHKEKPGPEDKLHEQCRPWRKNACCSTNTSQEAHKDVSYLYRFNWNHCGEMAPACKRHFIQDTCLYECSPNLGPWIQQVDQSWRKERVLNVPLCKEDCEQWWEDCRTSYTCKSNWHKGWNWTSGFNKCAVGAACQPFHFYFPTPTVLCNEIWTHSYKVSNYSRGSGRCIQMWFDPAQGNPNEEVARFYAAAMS

SMILES	log D7.4 [1]	PET images of KB tumor xenografts (KB tumor xenografts)	specificity of uptake (blocking with folic acid) (KB tumor xenografts)	Ki (folate receptor) [nM]	IC50 (folate receptor) [nM]
Nc1nc2ncc(CNc3ccc(C(=O)NC(CCC(=O)O)C(=O)NC(Cc4cn(C5OC(CO)C(O)C(O)C5[18F])nn4)C(=O)O)cc3)nc2c(=O)[nH]1 (stereo not drawn) [α-[^18F]-glucose folate]	−4.20±0.06	excellent images of KB tumor xenografts	highly specific and blocked by natural folic acid	–	–
Nc1nc2ncc(CNc3ccc(C(=O)NC(CCC(=O)O)C(=O)NC(Cc4cn(C5OC(CO)C(O)C(O)C5F)nn4)C(=O)O)cc3)nc2c(=O)[nH]1 (stereo not drawn) [α-glucose folate, α-[^19F]-Glucose Folate]	–	–	–	0.7 ± 0.2	1.4 ± 0.2
Nc1nc2ncc(CNc3ccc(C(=O)NC(CCC(=O)NC(Cc4cn(C5OC(CO)C(O)C(O)C5[18F])nn4)C(=O)O)C(=O)O)cc3)nc2c(=O)[nH]1 (stereo not shown) [γ-[^18F]-glucose folate]	−4.21±0.14	excellent images of KB tumor xenografts	highly specific and blocked by natural folic acid	–	–
Nc1nc2ncc(CNc3ccc(C(=O)NC(CCC(=O)NC(Cc4cn(C5OC(CO)C(O)C(O)C5F)nn4)C(=O)O)C(=O)O)cc3)nc2c(=O)[nH]1 (stereo not shown) [γ-glucose folate, γ-[^19F]-Glucose Folate]	–	–	–	0.8 ± 0.1	1.6 ± 0.1
